Reference: US5744451A, “N-substituted glutamic acid derivatives with interleukin-1 β converting enzyme inhibitory activity” (Warner-Lambert Company, priority 1996, dated 1998)
Residues, ends and D or L forms follow the SMILES beside them.

Key:
[1] = test system: human peripheral blood mononuclear cells (PBMCs); assay: Viability of PBMCs by MTT assay; format: cell-based; details: compound at 100 μM, additional 4 hours with MTT
Excerpt: Further evidence that compounds of Formula I are valuable inhibitors of ICE is provided by their ability to inhibit IL-1β production in human peripheral blood mononuclear cells (PBMCs) as described herein. PBMCs are isolated from heparinized blood by centrifugation over a ficoll cushion, then washed three times with phosphate-buffered saline. PBMCs are suspended in a medium containing RPMI 1640 with glutamine, penicillin, streptomycin and 2% human AB serum, then plated at 10^6 cells per well in 96-well flat bottom plates. PBMCs are stimulated overnight with 10 ng/mL of lipopolysaccharide (LPS, E. Coli strain 0111:B4; Calbiochem) in the presence or absence of a compound of Formula I. Medium is harvested and the level of mature IL-1β was determined using an ELISA kit from R & D Systems. Cells were cultured for an additional 4 hours in the presence of 3-(4,5-dimethylthiazol-2-yl)-2,5-diphenyltetrazolium bromide (MTT) to determine viability.

[2] = target: T1, ICE (interleukin-1β converting enzyme) (Homo sapiens, UniProt P29466); assay: ICE inhibition, fluorogenic Ac-Tyr-Val-Ala-Asp-AMC hydrolysis progress curves (Ki and kon); format: biochemical; details: [I]=2 or 4 μM
T1 sequence (P29466 120-297 limits assumed): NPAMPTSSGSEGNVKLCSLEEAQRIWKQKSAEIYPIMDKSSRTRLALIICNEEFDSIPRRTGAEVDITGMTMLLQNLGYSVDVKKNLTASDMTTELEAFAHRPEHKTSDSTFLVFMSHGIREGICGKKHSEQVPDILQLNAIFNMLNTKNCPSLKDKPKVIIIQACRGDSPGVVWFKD
T1 sequence (P29466 317-404 limits assumed): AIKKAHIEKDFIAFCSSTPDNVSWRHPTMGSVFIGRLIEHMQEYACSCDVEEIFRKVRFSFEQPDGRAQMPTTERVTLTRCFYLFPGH
Description: The progress curves are fit to the equation F=F0 +Vf.t+(Vi -Vf) (1-exp(-kobs t))/kobs, where F0 is the initial fluorescence, Vi and Vf are initial and final reaction velocities, and kobs is the pseudo first-order rate of inhibition. Ki is calculated as Ki =SPF.[I]Vf /(Vi -Vf), where the substrate protection factor (SPF) is 1+[S]/Km =17.7. kon is calculated as SPF.kobs /[I].

Question: What does the source list for `CC(=O)N[C@@H](Cc1ccc(O)cc1)C(=O)N[C@H](C(=O)N[C@@H](C)C(=O)N[C@H](C=O)CCC(=O)O)C(C)C` [Ac-Tyr-Val-Ala-Glu[CHO]] (Ac-YVAE-aldehyde)?
Answer: cell viability after treatment (MTT assay) [1]: > 95%; Ki ([2]; ICE 0.24 nM, 250 μM substrate Ac-Tyr-Val-Ala-Asp-AMC, corrected by SPF 17.7, read-out: Ki against ICE): 1.8 nM; kon ([2]; kon = SPF.kobs/[I], read-out: kon against ICE): 17200 M⁻¹ s⁻¹
